Columns and labels:
[1] = target: T1, 5-hydroxytryptamine receptor 1A (Homo sapiens) (UniProt P08908); assay: Antagonistic efficacy as adenylyl cyclase assay in CHO cells expressing human 5-HT1A receptor (experiment 2); type: functional, cell-based
T1 sequence (whole entry): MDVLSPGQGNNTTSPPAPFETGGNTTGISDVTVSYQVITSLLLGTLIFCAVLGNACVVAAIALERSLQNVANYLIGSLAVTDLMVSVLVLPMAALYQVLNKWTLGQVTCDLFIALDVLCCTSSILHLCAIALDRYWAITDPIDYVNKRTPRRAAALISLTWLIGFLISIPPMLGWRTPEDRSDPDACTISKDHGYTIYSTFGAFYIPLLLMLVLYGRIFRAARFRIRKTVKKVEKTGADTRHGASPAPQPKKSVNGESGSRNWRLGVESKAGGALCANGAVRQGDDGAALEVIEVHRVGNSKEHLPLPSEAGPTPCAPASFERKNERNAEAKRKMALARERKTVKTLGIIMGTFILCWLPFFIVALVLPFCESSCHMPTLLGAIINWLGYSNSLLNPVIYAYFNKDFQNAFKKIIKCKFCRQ

[2] = target: T2, 5-hydroxytryptamine receptor 1A (Homo sapiens, UniProt P08908); assay: Potency against human 5-hydroxytryptamine 1A receptor expressed in CHO cells (experiment 1); type: functional, cell-based
T2 sequence (P08908 whole entry): T1 sequence (whole entry)

[3] = target: T1, 5-hydroxytryptamine receptor 1A (Homo sapiens); assay: Agonistic efficacy as adenylyl cyclase assay in CHO cells expressing human 5-HT1A receptor (experiment 1); type: functional, cell-based
[4] = target: T2, 5-hydroxytryptamine receptor 1A; assay: Compound was tested for its potency against human 5-hydroxytryptamine 1A receptor expressed in CHO cells (experiment 2); type: functional, cell-based
[5] = target: T1, 5-hydroxytryptamine receptor 1A (Homo sapiens); assay: Antagonistic efficacy as adenylyl cyclase assay in CHO cells expressing human 5-HT1A receptor (experiment 1); type: functional, cell-based
[6] = target: T1, 5-hydroxytryptamine receptor 1A (Homo sapiens); assay: Agonistic efficacy in adenylyl cyclase assay in CHO cells expressing human 5-HT1A receptor (experiment 2); type: functional, cell-based
[7] = target: T3, 5-hydroxytryptamine receptor 1A (Rattus norvegicus, UniProt P19327); assay: (§1) Compound was tested for its potency against 5-hydroxytryptamine 1A receptor in rat frontal cortex membranes (experiment 2); type: cell membranes, Membrane; settings: read-out: pA2 (converted)
T3 sequence (P19327 whole entry): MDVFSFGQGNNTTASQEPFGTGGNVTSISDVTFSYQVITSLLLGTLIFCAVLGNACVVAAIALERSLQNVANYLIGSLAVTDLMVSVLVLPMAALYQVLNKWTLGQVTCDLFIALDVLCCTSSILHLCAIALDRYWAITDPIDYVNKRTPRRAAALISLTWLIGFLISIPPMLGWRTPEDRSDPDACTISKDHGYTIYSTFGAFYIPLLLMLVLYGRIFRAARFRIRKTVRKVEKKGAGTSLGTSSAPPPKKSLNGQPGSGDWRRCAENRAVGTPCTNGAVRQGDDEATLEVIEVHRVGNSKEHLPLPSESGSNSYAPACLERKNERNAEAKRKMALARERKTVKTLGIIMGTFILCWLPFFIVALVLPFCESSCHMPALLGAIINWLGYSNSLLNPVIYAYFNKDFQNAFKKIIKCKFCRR

[8] = target: T3, 5-hydroxytryptamine receptor 1A; assay: as §1; type: functional, cell membranes, Membrane; settings: read-out: pA2 (converted)
[9] = target: T3, 5-hydroxytryptamine receptor 1A
Description: Inhibition of [3H]8-OH-DPAT binding to 5-hydroxytryptamine 1A receptor of rat frontal cortex membranes

[10] = target: T2, 5-hydroxytryptamine receptor 1A
[11] = target: T1, 5-hydroxytryptamine receptor 1A (Homo sapiens); assay: Antagonistic efficacy was evaluated by adenylyl cyclase assay in CHO cells stably expressing the human 5-HT1A receptor; type: functional, cell-based
[12] = target: T2, 5-hydroxytryptamine receptor 1A; assay: Compound was tested for its potency against 5-hydroxytryptamine 1A receptor expressed in CHO cells (experiment 2); type: functional, cell-based
[13] = target: T3, 5-hydroxytryptamine receptor 1A; assay: Compound was tested for its potency against 5-hydroxytryptamine 1A receptor in rat frontal cortex membranes (experiment 1); type: cell membranes, Membrane; settings: read-out: pA2 (converted)
[14] = target: T1, 5-hydroxytryptamine receptor 1A (Homo sapiens); assay: Antagonistic efficacy was evaluated by adenylyl cyclase assay in CHO cells stably expressing the human 5-HT1A receptor (experiment 1); type: functional, cell-based
[15] = target: T1, 5-hydroxytryptamine receptor 1A (Homo sapiens); assay: Antagonistic efficacy was evaluated by adenylyl cyclase assay in CHO cells stably expressing the human 5-HT1A receptor (experiment 2); type: functional, cell-based
[16] = target: T1, 5-hydroxytryptamine receptor 1A (Homo sapiens); assay: Agonistic efficacy was evaluated by adenylyl cyclase assay in CHO cells stably expressing the human 5-HT1A receptor (experiment 2); type: functional, cell-based

| Structure (SMILES) | Efficacy [1] [%] | EC50 [2] [nM] | Efficacy [3] [%] | EC50 [4] [nM] | Efficacy [5] [%] | Efficacy [6] [%] | Kb [7] [nM] | Kb [8] [nM] | Ki [9] [nM] | EC50 [10] [nM] | Efficacy [11] [%] | EC50 [12] [nM] | Kb [13] [nM] | Efficacy [14] [%] | Efficacy [15] [%] | Efficacy [16] [%] |
| --- | --- | --- | --- | --- | --- | --- | --- | --- | --- | --- | --- | --- | --- | --- | --- | --- |
| c1ccc(CCCCN2CCN(c3cccc4c3OCCO4)CC2)cc1 | 70 | 6.76 | 45 | 6.03 | 74 | 50 | 25.1 |  |  |  |  |  |  |  |  |  |
| O=C1c2ccccc2S(=O)(=O)N1CCCCN1CCN(c2cc(Cl)cc3c2OCCO3)CC1 [DU 125530] | 100 |  | 0 |  | 100 | 0 |  | 0.288 | 0.708 |  |  |  |  |  |  |  |
| O=C(NCCN1CCN(c2cccc3c2OCC(CO)O3)CC1)c1ccc(F)cc1 (single isomer, unassigned) [FLESINOXAN] |  |  |  |  |  |  |  |  |  | 6.61 | 0 |  |  |  |  |  |
| O=C1c2ccccc2S(=O)(=O)N1CCCCN1CCN(c2ncccn2)CC1 [IPSAPIRONE] |  |  |  |  |  |  |  |  |  | 67.6 | 0 |  |  |  |  |  |
| O=C1c2ccccc2S(=O)(=O)N1CCCCN1CCN(c2cccc3c2OCCO3)CC1 | 65 |  | 11 |  | 68 | 23 |  | 0.363 | 0.288 |  |  |  |  |  |  |  |
| O=C(CCCN1CCN(c2cccc3c2OCCO3)CC1)c1ccc(F)cc1 | 42 | 5.25 | 50 | 7.41 | 22 | 48 |  |  | 1.35 |  |  |  |  |  |  |  |
| O=C1c2ccccc2S(=O)(=O)N1CCN1CCN(c2cccc3c2OCCO3)CC1 | 0 | 251 | 97 |  | 0 | 86 |  |  | 1.23 |  |  | 631 |  |  |  |  |
| O=C(NCCCCN1CCN(c2cccc3c2OCCO3)CC1)c1ccc(F)cc1 | 0 | 12.6 | 81 | 31.6 | 17 | 85 |  |  | 1.05 |  |  |  |  |  |  |  |
| O=C1c2ccccc2C(=O)N1CCCCN1CCN(c2cccc3c2OCCO3)CC1 | 62 | 1.35 | 44 | 5.75 | 55 | 49 | 0.676 |  | 0.229 |  |  |  | 0.661 |  |  |  |
| O=C1c2ccccc2C(=O)N1CCN1CCN(c2cccc3c2OCCO3)CC1 | 2 |  | 0 |  | 0 | 30 |  |  | 31.6 |  |  |  |  |  |  |  |
| O=C(NCCN1CCN(c2cccc3c2OCCO3)CC1)c1ccc(F)cc1 | 0 | 0.955 | 97 | 0.851 | 0 | 97 |  |  | 0.295 |  |  |  |  |  |  |  |
| O=C(CCCN1CCN(c2cccc3c2OCCO3)CC1)c1ccccc1 |  | 2.88 | 71 | 2.82 |  |  |  |  |  |  |  |  |  | 33 | 18 | 67 |

— ChEMBL document CHEMBL1130957, “Functional characteristics of a series of N4-substituted 1-(2,3-dihydro-1,4-benzodioxin-5-yl)piperazines as 5-HT1A receptor ligands. Structure-activity relationships” (Bioorg Med Chem Lett, 1998)
